What all share (assay): NCI tumour cell line growth inhibition, 48 h
Experiment [1] concerns HOP-92.
For experiment [2], the system named is SF-539.
Experiment [3] concerns RPMI-8226.
Experiment [4] concerns SN12C.
Experiment [5] deals with MDA-MB-435.
Experiment [6] concerns OVCAR-4.
In experiment [7] the test system is SK-MEL-28.
Experiment [8] has as its system SNB-75.
For experiment [9], the system named is IGROV-1.
For experiment [10], the system named is UO-31.
For experiment [11], the system named is KM12.
Experiment [12] concerns DU-145.
The subject of experiment [13] is OVCAR-5.
Experiment [14] deals with ACHN.
Experiment [15] concerns M14.
The subject of experiment [16] is A498.
Experiment [17] relates to 786-0.
For experiment [18], the system named is COLO 205.
For experiment [19], the system named is A549.
The subject of experiment [20] is NCI-H226.

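96-well plates; 48 h exposure; 5 concentrations. Endpoints by linear interpolation between flanking doses. Not reached: highest tested concentration assigned. The concentration for 50% growth inhibition is given as GI50.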 Calls of active or inactive are those of the source. No stated cut-off is given here; in the data, active = GI50 up to about 1.1 µM and inactive = higher. Where only a bound is given, the exact number is not on record here.

Consider four compounds from ChEMBL document CHEMBL1201862, “PubChem BioAssay data set” (2004).

In the case of `c1cc(CCN2CCCCC2)ccn1`, the GI50 in experiment [1], in experiment [2], in experiment [3], in experiment [4], in experiment [5] and in [6] was > 100 µM (inactive) in each case. Further, the GI50 in [7], in experiment [8], in [9], in experiment [10], in experiment [11] and in [12] was > 100 µM (inactive) in each case. Besides, the GI50 in [13], in experiment [14], in experiment [15], in [16], in [17] and in experiment [18] was > 100 µM (inactive) in each case. The GI50 in experiment [19] and in experiment [20] was > 100 µM (inactive) in each case.

Turning to `CN(C)CCn1c(=O)c2ccc(NCCCN(C)CCCNc3ccc4c(=O)n(CCN(C)C)c(=O)n5c6ccc([N+](=O)[O-])cc6c(=O)c3c45)c3c(=O)c4cc([N+](=O)[O-])ccc4n(c1=O)c23`, the GI50 was < 0.0354 µM (active) in experiment [1]; < 0.01 µM (active) in experiment [2]; < 0.01 µM (active) in experiment [3]; < 0.01 µM (active) in experiment [4]; < 0.0173 µM (active) in experiment [5]; < 0.01 µM (active) in experiment [6]. For the same compound, the GI50 in [7] was 0.0664 µM (active); in experiment [8], < 0.01 µM (active); in experiment [9] it was < 0.01 µM (active); in experiment [10], 0.0129 µM (active); in experiment [11], < 0.01 µM (active); in experiment [12] it was < 0.01 µM (active). Moreover, the GI50 in experiment [13] is < 0.037 µM (active); in experiment [14], < 0.01 µM (active); in [15], 0.057 µM (active); in [16], 0.0478 µM (active); in [17] it was < 0.01 µM (active); in experiment [18], < 0.01 µM (active). Also, the GI50 in experiment [19] and in experiment [20] was < 0.01 µM (active) in each case.

`NS(=O)(=O)c1ccc(NNc2c3ccccc3nc3ccccc23)cc1`: the GI50 in experiment [1] is 14.1 µM (inactive); in experiment [2], 12.2 µM (inactive); in [3], 9.4 µM (inactive); in [4], 14 µM (inactive); in experiment [5], 12.4 µM (inactive); in [6], 10.5 µM (inactive). Besides, the GI50 in experiment [7] is 12 µM (inactive); in [8] it was 12.9 µM (inactive); in experiment [9], 11.2 µM (inactive); in experiment [10], 10.9 µM (inactive); in [11] it was 11.6 µM (inactive); in [12] it was 14.3 µM (inactive). The GI50 in experiment [13] was 12.8 µM (inactive); in experiment [14], 11.4 µM (inactive); in experiment [15], 11.2 µM (inactive); in experiment [16], 18.3 µM (inactive); in [17], 12.6 µM (inactive); in experiment [18], 7.29 µM (inactive). Besides, the GI50 in experiment [19] was 15.3 µM (inactive); in [20], 10.3 µM (inactive).

In the case of `CCN(CC)CCSc1c(C(C)=O)c(=O)n(-c2ccccc2)c(=S)n1-c1ccccc1`, the GI50 in experiment [1] was 1.9 µM (inactive); in [2], 2.4 µM (inactive); in experiment [3] it was 2.13 µM (inactive); in [4], 14.4 µM (inactive); in experiment [5] it was 6.17 µM (inactive); in experiment [6], 9.1 µM (inactive). Also, the GI50 is 10.5 µM (inactive) in experiment [7]; 33.3 µM (inactive) in experiment [8]; 13 µM (inactive) in experiment [9]; 1.96 µM (inactive) in experiment [10]; 17.2 µM (inactive) in [11]; 3.08 µM (inactive) in experiment [12]. For the same compound, the GI50 in [13] was 21 µM (inactive); in experiment [14], 3.77 µM (inactive); in experiment [15], 2.05 µM (inactive); in [16] it was 19.1 µM (inactive); in [17] it was 1.8 µM (inactive); in [18], 1.8 µM (inactive). The GI50 in experiment [19] is 13.8 µM (inactive); in [20], > 40.3 µM (inactive).
